Laboratory results published in patent US20220280594A1, “APPLICATION OF POLYPEPTIDE OR DERIVATIVE THEREOF” (CHENGDU HUITAI BIOMEDICINE CO., LTD., priority 2019, published 2022).
Ends that are not written are not given here. PEG = not defined here

Columns and labels:
Assay type in all cases: cell-based
[1] = test system: human colon cancer cells (HCT-116); assay: scratch assay, migration of HCT-116 cells; conditions: HCT-116, 10 μM, 48 hours; control group 47.78 ± 6.07
Experimental: (§1) In the scratch assay, the cell migration rate was negatively correlated with the inhibitory effect of the drug component on tumor cell migration ability. The cell migration inhibition experiment was described as follows: tumor cells were cultured in vitro, cells in logarithmic growth phase were collected and seeded evenly in a 24-well plate at a density of 1-2×10^5 cells/well; the cells were cultured in a cell incubator until a monolayer was formed; a scratch tool was used to make a “-” (straight) scratch on the monolayer of cells; the cells were washed 1-3 times with PBS, and a medium (with 2% fetal bovine serum) containing specific test components was added to the culture. Experimental grouping: PBS control group; polypeptide or derivative thereof treatment group (N1-N54), 10 μM. Three independent parallel wells were set up in each group, and the cells were cultured continuously in a cell incubator for 48 hours. […] At least 3 representative images for each well were taken. ImageJ software was used to count the migration distance of the cells, and the cell migration rate was calculated as: cell migration rate (%)=(width of original scratch−width of current scratch)/width of original scratch×100.
This example was a scratch assay to evaluate the inhibitory effect of the polypeptide or derivative thereof (N1-N54) on the migration ability of human colon cancer cells (HCT-116). The experimental method was as described in Example 2.

[2] = test system: human pancreatic cancer cells (PANC-1); assay: transwell migration assay, PANC-1 cells; conditions: PANC-1 transwell migration, 10 μM, 24 hours; control group 360 ± 60
Experimental: (§2) The Transwell chamber system was used in the transwell cell migration experiment. The chamber has an upper layer and a lower layer, which are separated by an artificial semipermeable membrane in the middle. Cells that have migrated through the semi-permeable membrane will attach to the lower surface of the semi-permeable membrane. The migration ability is evaluated by counting the number of cells on the lower surface of the semi-permeable membrane. The number of cells that have migrated is negatively correlated with the inhibitory effect of the drug on the migration ability of the tumor cells. Transwell migration assay was performed as follows: tumor cells were cultured in vitro, cells in logarithmic growth phase were collected, and cell suspension was prepared with fresh serum-free medium at a density of 2-3×10^5 cells/mL. Cells were inoculated, 100 μL/well cell suspension (serum-free medium) in the upper chamber and 600 μL/well complete culture medium in the lower chamber. After incubated in 37° C., 5% CO2 incubator for 4-5 hours, serum-free medium (100 μL/well) was added to the control group, and serum-free medium containing polypeptide or derivative thereof (N1-N54) was added to the upper chamber of the treatment group (100 μL/well), the final concentration of the peptide or derivative thereof in the upper chamber was 10 μM. The cells were incubated continuously for 24 hours, and then fixed with methanol and stained with crystal violet. Images were taken under a microscope and the number of migrated cells was counted with ImageJ.
This example was a transwell cell migration experiment to evaluate the inhibitory effect of the polypeptide or derivative thereof (N1-N54) on the migration ability of human pancreatic cancer cells (PANC-1). The experimental method was as described in Example 3.

[3] = test system: human liver adenocarcinoma cells (SK-HEP-1); assay: transwell migration assay, SK-HEP-1 cells; conditions: SK-HEP-1 transwell migration, 10 μM, 24 hours; control group 1 782 ± 108, control group 2 768 ± 86
Experimental: as §2
This example was a transwell cell migration experiment to evaluate the inhibitory effect of the polypeptide or derivative thereof (N1-N54) on the migration ability of human liver adenocarcinoma cells (SK-HEP-1). The experimental method was as described in Example 3.

[4] = test system: human non-small cell lung cancer cells (A549); assay: scratch assay, migration of A549 cells; conditions: A549, 10 μM, 48 hours; control group 75.31 ± 8.19
Experimental: as §1
This example was a scratch assay to evaluate the inhibitory effect of the polypeptide or derivative thereof (N1-N54) on the migration ability of human non-small cell lung cancer (A549). The experimental method was as described in Example 2.

[5] = test system: human lung squamous carcinoma cells (NCI-H226); assay: scratch assay, migration of NCI-H226 cells; conditions: NCI-H226, 10 μM, 48 hours; control group 65.31 ± 3.19
Experimental: as §1
This example was a scratch assay to evaluate the inhibitory effect of the polypeptide or derivative thereof (N1-N54) on the migration ability of human lung squamous carcinoma cells (NCI-H226). The experimental method was as described in Example 2.

[6] = test system: human prostate cancer cells (22RV1); assay: scratch assay, migration of 22RV1 cells; conditions: 22RV1, 10 μM, 48 hours; control group 25.41 ± 5.01
Experimental: as §1
This example was a scratch assay to evaluate the inhibitory effect of the polypeptide or derivative thereof (N1-N54) on the migration ability of human prostate cancer cells (22RV1). The experimental method was as described in Example 2.

[7] = test system: human thyroid cancer cells (FRO); assay: scratch assay, migration of FRO cells; conditions: 10 μM, 48 hours, control group 60.34 ± 8.32
Experimental: as §1
This example was a scratch assay to evaluate the inhibitory effect of the polypeptide or derivative thereof (N1-N54) on the migration ability of human thyroid cancer cells (FRO). The experimental method was as described in Example 2.

[8] = test system: human pancreatic cancer cells (PANC-1); assay: scratch assay, migration of PANC-1 cells; conditions: PANC-1, 10 μM, 48 hours; control group 66.65 ± 3.37
Experimental: as §1
This example was a scratch assay to evaluate the inhibitory effect of the polypeptide or derivative thereof (N1-N54) on the migration ability of human pancreatic cancer cells (PANC-1). The experimental method was as described in Example 2.

[9] = test system: human breast cancer cells (MDA-MB-231); assay: scratch assay, migration of MDA-MB-231 cells; conditions: MDA-MB-231, 10 μM, 48 hours; control group 36.19 ± 5.15
Experimental: as §1
This example was a scratch assay to evaluate the inhibitory effect of the polypeptide or derivative thereof (N1-N54) on the migration ability of human breast cancer cells (MDA-MB-231). The experimental method was as described in Example 2.

[10] = test system: human pharyngeal squamous-cell carcinoma cells (Fadu); assay: scratch assay, migration of Fadu cells; conditions: 10 μM, 48 hours, control group 28.76 ± 4.08
Experimental: as §1
This example was a scratch assay to evaluate the inhibitory effect of the polypeptide or derivative thereof (N1-N54) on the migration ability of human pharyngeal squamous-cell carcinoma cells (Fadu). The experimental method was as described in Example 2.

[11] = test system: human lung cancer cells (95D); assay: scratch assay, migration of 95D cells; conditions: 10 μM, 48 hours, control group 55.3 ± 3.19
Experimental: as §1
This example was a scratch assay to evaluate the inhibitory effect of the polypeptide or derivative thereof (N1-N54) on the migration ability of human lung cancer cells (95D). The experimental method was as described in Example 2.

| Substance | Migration rate (%) (mean ± SD, P) [1] | Number of cells (mean ± SD, P), migrated cells [2] | Number of cells (mean ± SD, P), migrated cells [3] | Migration rate (%) (mean ± SD, P) [4] | Migration rate (%) (mean ± SD, P) [5] | Migration rate (%) (mean ± SD, P) [6] | Migration rate (%) (mean ± SD, P) [7] | Migration rate (%) (mean ± SD, P) [8] | Migration rate (%) (mean ± SD, P) [9] | Migration rate (%) (mean ± SD, P) [10] | Migration rate (%) (mean ± SD, P) [11] |
| --- | --- | --- | --- | --- | --- | --- | --- | --- | --- | --- | --- |
| N7: SEQ ID NO: 1 with addition of one amino acid at the carboxyl terminal and substitution A15R (YRVRFLAKENVTQDREDNC) | 20.09 ± 2.41,** % | 132 ± 15,*** | 127 ± 16,**** | 48.64 ± 3.10,** % | 18.83 ± 4.53,*** % | 6.54 ± 2.24,** % | 5.73 ± 2.04,*** % | 37.07 ± 7.83,** % | 21.04 ± 2.46,* % | 13.12 ± 3.56,** % | 35.72 ± 3.68,** % |
| N8: SEQ ID NO: 1 with deletion of positions 15-18 and positions 3, 4 and 11 (YRFLAKENTQD) | 16.96 ± 3.87,** % | 133 ± 20,*** | 139 ± 13,**** | 32.62 ± 5.83,** % | 20.29 ± 4.29,*** % | 8.75 ± 1.98,** % | 7.28 ± 2.89,*** % | 35.11 ± 5.96,** % | 19.02 ± 3.53,* % | 9.54 ± 5.75,** % | 35.13 ± 4.45,** % |
| N9: SEQ ID NO: 1 with deletion of positions 15-18 and PEG modification at the amino terminal ({PEG}-YRVRFLAKENVTQD; reading uncertain) | 25.96 ± 3.84,** % | 148 ± 16,*** | 174 ± 15,**** | 56.92 ± 4.49,** % | 35.47 ± 5.20,** % | 14.84 ± 2.96,* % | 20.51 ± 5.04,** % | 29.12 ± 5.84,*** % | 15.96 ± 3.92,* % | 16.82 ± 3.57,* % | 32.27 ± 4.69,** % |
| N10: SEQ ID NO: 1 with deletion of positions 15-18 and 1-3 and PEG modification at the carboxyl terminal (RFLAKENVTQD-{PEG}; reading uncertain) | 8.70 ± 2.39,*** % | 254 ± 20,* | 54 ± 5,**** | 26.86 ± 8.78,** % | 17.75 ± 5.87,*** % | 13.39 ± 2.3,* % | 14.14 ± 3.64,*** % | 32.80 ± 5.89,** % | 13.6 ± 4.62,** % | 15.93 ± 4.73,* % | 34.35 ± 5.74,** % |
| N11: SEQ ID NO: 1 with deletion of positions 15-18 and 1-3 and PEG modification at the amino terminal ({PEG}-RFLAKENVTQD; reading uncertain) | 13.81 ± 2.92,*** % | 239 ± 26,* | 80 ± 6,**** | 30.79 ± 6.74,** % | 21.77 ± 5.03,*** % | 9.43 ± 2.23,** % | 10.09 ± 4.33,*** % | 28.37 ± 7.57,** % | 10.68 ± 5.72,** % | 19 ± 5.37,* % | 28.28 ± 3.68,*** % |
| N12: SEQ ID NO: 1 with deletion of position 18 and positions 1-2 (VRFLAKENVTQDAED) | 8.14 ± 3.00,*** % | 246 ± 14,* | 405 ± 49,** | 20.05 ± 8.79,** % | 13.18 ± 6.31,*** % | 6.61 ± 2.83,** % | 7.67 ± 3.29,*** % | 23.26 ± 6.90,** % | 15.41 ± 3.55,** % | 17.72 ± 2.53,** % | 28.72 ± 2.96,** % |
